US10081614B2, “Bis(sulfonamide) derivatives and their use as mPGES inhibitors” (Acturum Real Estate AB, priority 2014, dated 2018)

Legend:
[1] = target: T1, human mPGES-1 (Homo sapiens, UniProt O14684); experiment: Microsomal prostaglandin E synthase biochemical assay; conditions: microsomes containing human mPGES-1, PGH2 10.8 μM, GSH 2.5 mM, pH 6.8; average of at least n=2
T1 construct: host or cells: microsomes
T1 sequence (O14684 1-152): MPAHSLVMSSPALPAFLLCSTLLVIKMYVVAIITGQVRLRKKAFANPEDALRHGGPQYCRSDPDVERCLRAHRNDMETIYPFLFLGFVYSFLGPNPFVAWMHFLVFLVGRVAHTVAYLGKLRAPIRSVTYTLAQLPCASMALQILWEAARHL
Procedure: Compounds were tested as inhibitors of microsomal prostaglandin E synthase activity in microsomal prostaglandin E synthase assays and whole cell assays. These assays measure prostaglandin E2 (PGE2) synthesis, which is taken as a measure of prostaglandin E synthase activity. Microsomal prostaglandin E synthase biochemical assays used microsomal prostaglandin E synthase-1 in microsomal preparations. The source of the microsomes can be for example interleukin-1β-stimulated human A549 cells (which express human mPGES-1) or Sf9 cells transfected with plasmids encoding human mPGES-1 cDNA.
A solution of test compound was added to a diluted microsome preparation containing human mPGES-1 and pre-incubated for 15 minutes in potassium phosphate buffer pH 6.8 with cofactor glutathione (GSH). Corresponding solutions without test compound were used as positive controls, and corresponding solutions without test compound and without microsomes were used as negative controls. The enzymatic reaction was then started by addition of the substrate PGH2 in an organic solution (dry acetonitrile).
The typical reaction conditions of the enzymatic reaction were thus: Test compound: ranging from 60 μM to 0.002 μM, or zero in positive and negative controls; potassium phosphate buffer pH 6.8:50 mM; GSH: 2.5 mM; mPGES-1-containing microsomes: 2 μg/mL (sample and positive controls) or 0 μg/mL (negative control); PGH2: 10.8 μM; Acetonitrile: 7.7% (v/v); DMSO: 0.6% (v/v). The reaction was stopped after one minute by adding an acidic solution (pH 1.9) of ferric chloride and citrate (final concentrations 7 mM and 47 mM respectively), by which the PGH2 was sequestered (the PGH2 is reduced to mainly 12-hydroxy heptadecatrineoic acid (12-HHT) which is not detected by the subsequent PGE2 detection step). The resulting solution was then pH neutralized by addition of potassium phosphate buffer, prior to diluting an aliquot of the resulting solution in a weak potassium phosphate buffer (50 mM, pH 6.8) containing 0.2% BSA (w/v). [Adapted from Jacobsson et al., Proc. Natl. Acad. Sci. USA, 1999, vol. 96, pp. 7220-7225] The PGE2 formed was quantified by use of a commercial HTRF based kit (catalogue #62PG2PEC or #62P2APEC from Cisbio International). 100% activity was defined as the PGE2 production in positive controls subtracted by the PGE2 production in the negative controls. IC50 values were then determined using standard procedures.
The potency is expressed as IC50 and the value indicated is an average of at least n=2.

[2] = tested on: mPGES-1-dependent PGE2 production in human blood; experiment: Whole blood assay (LPS-stimulated human blood, PGE2 production); type: cell-based; conditions: 0.1 μg/ml LPS, 16 hours at 37° C., PGE2 by HTRF, read-out: hWBA
Excerpt: The whole blood assay [described by Patrignani, P. et al, Journal of Pharmacology and Experimental Therapeutics, 1994, vol. 271, pp 1705-1712] was used as the whole cell assay for testing the compounds. Whole blood provides a protein and cell rich environment for the study of biochemical efficacy of anti-inflammatory compounds, such as prostaglandin synthase inhibitors. To study the inhibitory activities of these compounds, human blood was stimulated with lipopolysaccharide (LPS) for typically 16 hours to induce mPGES-1 expression, after which the concentration of produced PGE2 was measured by competitive-immuno assay (homogeneous time-resolved fluorescence, HTRF) as read out for effectiveness against mPGES-1-dependent PGE2 production.
Human blood collected from human volunteers in heparinized tubes was incubated with 100 μM acetyl salicylic acid, in order to inhibit the constitutively expressed cyclooxygenase (COX)-1/COX-2 enzymes, and then stimulated with 0.1 μg/ml LPS to induce the expression of enzymes along the COX-2 pathway, e.g. COX-2 and mPGES-1. 100 μL of this blood was added to the wells of a 384-well plate containing 1 μL DMSO solutions of compounds typically in the final concentration range 316 μM to 0.01 μM. Naproxen was used as reference compound. The mix was incubated at 37° C. for 16 hours. Plasma was harvested by centrifugation and stored at −70° C. until further analysis of PGE2 levels. For the calculations, the 0%-activity value was represented by blood treated with acetyl salicylic acid, LPS and the reference compound (1 mM Naproxen). The 100%-activity value was represented by blood treated with aspirin, LPS and DMSO. [Reference: Patrignani, P. et al, Journal of Pharmacology and Experimental Therapeutics, 1994, vol. 271, pp 1705-1712]. The PGE2 formed was quantified, after dilution in a weak potassium phosphate buffer (50 mM, pH 6.8) containing 0.2% BSA (w/v), by use of a commercial HTRF based kit (catalogue #62PG2PEC or #62P2APEC from Cisbio International). IC50 values were then determined using standard procedures.

| IC50 [1] [nM] | IC50 [2] [nM] | SMILES |
| --- | --- | --- |
| 3.4 | 63.9 | NS(=O)(=O)c1ccccc1NS(=O)(=O)CCc1ccc(Br)cc1OCC1CCOCC1 [Example 1, 2-[({2-[4-Bromo-2-(tetrahydro-2H-pyran-4-ylmethoxy)phenyl]ethyl}sulfonyl)amino]benzenesulfonamide] |
| 3.5 | 24.9 | NS(=O)(=O)c1ccccc1NS(=O)(=O)CCc1ccc(Cl)cc1OCC1CCOCC1 [Example 2, 2-[({2-[4-Chloro-2-(tetrahydro-2H-pyran-4-ylmethoxy)phenyl]ethyl}sulfonyl)amino]benzenesulfonamide] |
| 4 | 26.6 | NS(=O)(=O)c1ccccc1NS(=O)(=O)CCc1ccc(C(F)(F)F)cc1OCC1CCOCC1 [Example 3, 2-[({2-[2-(Tetrahydro-2H-pyran-4-ylmethoxy)-4-(trifluoromethyl)phenyl]ethyl}sulfonyl)amino]benzenesulfonamide] |
| 15 | 154 | Cc1ccc(CCS(=O)(=O)Nc2ccccc2S(N)(=O)=O)c(OCC2CCOCC2)c1 [Example 4, 2-[({2-[4-methyl-2-(tetrahydro-2H-pyran-4-ylmethoxy)phenyl]ethyl}sulfonyl)amino]benzenesulfonamide] |
| 16 | 89.7 | NS(=O)(=O)c1ccccc1NS(=O)(=O)CCc1ccc(F)cc1OCC1CCOCC1 [Example 5, 2-[({2-[4-Fluoro-2-(tetrahydro-2H-pyran-4-ylmethoxy)phenyl]ethyl}sulfonyl)amino]benzenesulfonamide] |
| 2.7 | 11.5 | NS(=O)(=O)c1ccccc1NS(=O)(=O)CCc1ccc(Cl)cc1OCC1CCC(F)(F)CC1 [Example 6, 2-{[(2-{4-Chloro-2-[(4,4-difluorocyclohexyl)methoxy]phenyl}ethyl)sulfonyl]amino}benzenesulfonamide] |
| 7.2 | 54.1 | Cc1ccc(CCS(=O)(=O)Nc2ccccc2S(N)(=O)=O)c(OCC2CCC(F)(F)CC2)c1 [Example 7, 2-{[(2-{2-[(4,4-Difluorocyclohexyl)methoxy]-4-methylphenyl}ethyl)sulfonyl]amino}benzenesulfonamide] |
| 7.6 | 149 | NS(=O)(=O)c1ccccc1NS(=O)(=O)CCc1ccc(F)cc1OCC1CCC(F)(F)CC1 [Example 8, 2-{[(2-{2-[(4,4-Difluorocyclohexyl)methoxy]-4-fluorophenyl}ethyl)sulfonyl]amino}benzenesulfonamide] |
| 3.4 | 0.911 | NS(=O)(=O)c1ccccc1NS(=O)(=O)CCc1ccc(C#Cc2ccccc2)cc1OCC1CCOCC1 [Example 9, 2-[({2-[4-(Phenylethynyl)-2-(tetrahydro-2H-pyran-4-ylmethoxy)phenyl]ethyl}sulfonyl)amino]benzenesulfonamide] |
| < 2.2 | 7.92 | NS(=O)(=O)c1ccccc1NS(=O)(=O)CCc1ccc(C#CC2CC2)cc1OCC1CCOCC1 [Example 10, 2-[({2-[4-(Cyclopropylethynyl)-2-(tetrahydro-2H-pyran-4-ylmethoxy)phenyl]ethyl}sulfonyl)amino]benzenesulfonamide] |
| 2.1 | 0.987 | NS(=O)(=O)c1ccccc1NS(=O)(=O)CCc1ccc(C#CC2CCCC2)cc1OCC1CCOCC1 [Example 11, 2-[({2-[4-(Cyclopentylethynyl)-2-(tetrahydro-2H-pyran-4-ylmethoxy)phenyl]ethyl}sulfonyl)amino]benzenesulfonamide] |
| < 2.3 | 1.84 | NS(=O)(=O)c1ccccc1NS(=O)(=O)CCc1ccc(C#CC2CCC2)cc1OCC1CCOCC1 [Example 12, 2-[({2-[4-(cyclobutylethynyl)-2-(tetrahydro-2H-pyran-4-ylmethoxy)phenyl]ethyl}sulfonyl)amino]benzenesulfonamide] |
| 3.4 | 1.85 | CC(C)C#Cc1ccc(CCS(=O)(=O)Nc2ccccc2S(N)(=O)=O)c(OCC2CCOCC2)c1 [Example 13, 2-[({2-[4-(3-methylbut-1-yn-1-yl)-2-(tetrahydro-2H-pyran-4-ylmethoxy)phenyl]ethyl}sulfonyl)amino]benzenesulfonamide] |
| 2.1 | 0.987 | Cc1ccc(C#Cc2ccc(CCS(=O)(=O)Nc3ccccc3S(N)(=O)=O)c(OCC3CCOCC3)c2)cc1 [Example 14, 2-{[(2-{4-[(4-Methylphenyl)ethynyl]-2-(tetrahydro-2H-pyran-4-ylmethoxy)phenyl}ethyl)sulfonyl]amino}benzenesulfonamide] |
| < 2.5 | 17.1 | CC(C)(C)C#Cc1ccc(CCS(=O)(=O)Nc2ccccc2S(N)(=O)=O)c(OCC2CCOCC2)c1 [Example 15, 2-[({2-[4-(3,3-Dimethylbut-1-yn-1-yl)-2-(tetrahydro-2H-pyran-4-ylmethoxy)phenyl]ethyl}sulfonyl)amino]benzenesulfonamide] |
| 5.6 | 29 | NS(=O)(=O)c1cc(CO)ccc1NS(=O)(=O)CCc1ccc(Cl)cc1OCC1CCOCC1 [Example 16, 2-[({2-[4-chloro-2-(tetrahydro-2H-pyran-4-ylmethoxy)phenyl]ethyl}sulfonyl)amino]-5-(hydroxymethyl)benzenesulfonamide] |
| 19.5 | 214 | NS(=O)(=O)c1cc(CO)ccc1NS(=O)(=O)CCc1ccc(F)cc1OCC1CCOCC1 [Example 17, 2-[({2-[4-fluoro-2-(tetrahydro-2H-pyran-4-ylmethoxy)phenyl]ethyl}sulfonyl)amino]-5-(hydroxymethyl)benzenesulfonamide] |
